Measured values reported in US7608246B2 (The Brigham and Women's Hospital, Inc., priority 2005, dated 2009).

Key:
LDL-R = assay: ApoB competition at the LDL-R: DC pulsed with free GGC or apoE-GGC, activation of αGC reactive T cells; type: cell-based, human; settings: increasing amounts of apoB
Protocol: C) Free GGC or apoE-GGC was pulsed onto DC in the presence of increasing concentrations of apoB, and the subsequent activation of αGC reactive T cells was measured. There was no effect of apoB on PHA-stimulation of T cells. All data are representative of at least three experiments.
In a second approach, advantage was taken of the fact that apoB, the primary component of LDL, also binds to the LDL-R and can serve as a competitive ligand, while not binding LRP (Beisiegel et al., Nature 341:162-4 (1989)). […] As controls, increasing amounts of apoB had no effect on the dose response to free GGC (FIG. 3C) or on the PHA induced T cell response.

CD1c = CD1c presented antigen T cell stimulation with or without apoE; type: cell-based; settings: versus without apoE
CD1d-reactive T cells = assay: T cell reactivity to GGC in apoE-depleted human serum; type: cell-based; settings: compared to normal human serum
Description: Data are means of triplicate samples +/−SEM and are representative of four independent experiments using two separate apoE depletion columns and varying doses of antigen. Statistics reflect all doses in all experiments: *p<0.001, **p<0.001, ***p<0.01.

αGC reactive T cells = assay: ApoE enhancement of GGC reactivity: DC pulsed, co-cultured with αGC reactive T cells, IFNγ ELISA; type: cell-based, human; settings: for increase of antigenic potency of GGC: compared to freshly sonicated free GGC or GGC with HDL, LDL or albumin
Protocol: Sonicated GGC was incubated with the indicated components in serum-free media with 4 mg/ml bovine serum albumin (BSA) as a carrier for 1-2 hours (or freshly sonicated) before pulsing DC and co-culturing with αGC reactive T cells in media supplemented with 2% human serum. IFNγ was measured in 16-24 hours by ELISA.
C) Dose-dependence of apoE.

TT-reactive clone = type: cell-based
DC = assay: Rapidity of lipid antigen uptake: DC pulsed for varying times, then T cell stimulation; type: cell-based, human; settings: free lipid in media alone
Protocol: A) ApoE enhances the efficiency of presentation of GGC. […] GGC (solid squares and striped bars) or sonicated free GGC (open triangles and open bars) was incubated with DC in serum-free media with 4 mg/ml BSA for the indicated times before washing and testing the ability to stimulate T cells as described in FIGS. 1 and 2. Upper panel: Dose response curve of GGC for 2 minute pulse. Lower panel: Various pulse times are shown for 50 ng/ml GGC.
To determine the rapidity and efficiency of lipid uptake into DC, free lipid antigen or apoE-bound lipid antigen was used to pulse DC for varying times before washing the cells and assaying their subsequent ability to present antigen to T cells.

apoE = apoE (Homo sapiens, UniProt P02649); assay: ApoE-GGC binding, heparin affinity column
Protocol: A) ApoE-GGC binding. […] Fractions were assayed for antigenic activity as in FIG. 1. There was no difference in non-specific loss to the column. Data are representative of at least six separate experiments.

αGC-reactive NKT cells [1] = assay: Response to intravenous GGC in apoE-deficient mice (intracellular IFNγ of CD1d tetramer positive cells); type: in vivo; settings: 200 ng GGC or 1.5 μg anti-CD3
Description: Spleens and livers were harvested and TcRβ-positive, CD19-negative, CD1d tetramer positive cells analyzed for intracellular IFNγ production by flow cytometry.
This was not due to a nonspecific deficit of T cell reactivity, since intravenous administration of anti-CD3 antibodies activated αGC reactive T cells similarly in both apoE-deficient mice and controls. Thus, apoE plays a crucial role in the in vivo presentation of an exogenous lipid antigen.

αGC-reactive NKT cells [2] = assay: Response to intravenous GGC in LDL-R deficient mice; type: in vivo; settings: 200 ng GGC or 1.5 μg anti-CD3
Protocol: D) LDLR−/− and matched wild type controls were challenged intravenously with 200 ng GGC, 1.5 μg anti-CD3 or vehicle as described in FIG. 1D. Shown are results from spleen, with similar results in the liver. Represents two separate experiments with 10 LDLR−/− and 10 wild type mice.
Finally, the response to GGC in LDL-R deficient mice was examined. […] Thus, it was concluded that the LDL-R plays a major role in the uptake of apoE-lipid antigen complexes and presentation by CD1.

[3] = test system: CD1b-restricted T cell line LDN5; assay: CD1b restricted T cell response to mycobacterial lipid antigens with or without apoE; type: cell-based; settings: versus without apoE
Description: D) Enhancement of a CD1b dependent T cell response against foreign antigens.

apoE, sequence (P02649 19-317): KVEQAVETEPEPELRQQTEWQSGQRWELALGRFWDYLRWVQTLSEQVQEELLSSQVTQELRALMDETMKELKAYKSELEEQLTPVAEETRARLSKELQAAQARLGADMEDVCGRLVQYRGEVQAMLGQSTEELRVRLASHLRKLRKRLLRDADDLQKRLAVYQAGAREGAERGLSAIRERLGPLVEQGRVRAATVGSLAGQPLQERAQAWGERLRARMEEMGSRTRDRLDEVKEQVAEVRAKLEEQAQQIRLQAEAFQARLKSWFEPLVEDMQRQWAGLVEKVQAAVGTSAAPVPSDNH

apolipoprotein B [apoB]
effect on antigen presentation by DC pulsed with apoE-GGC (LDL-R): dose-dependent diminution | effect on dose response to free GGC or PHA induced T cell response (LDL-R): no effect

manosyl-phosphomycoketide
T cell stimulation by CD1c presented antigen complexed with apoE (CD1c): significantly more efficient

apolipoprotein E [apoE]
capacity of serum incubated with GGC to stimulate T cells (CD1d-reactive T cells): recovered | effect on control T cell stimulators (CD3, PHA or PMA/ionomycin) (αGC reactive T cells; increasing the concentration of apoE): no effect | effect on MHC class II restricted response to tetanus toxoid (TT-reactive clone): no effect

recombinant apoE: recombinant apoE
increase of antigenic potency of GGC (αGC reactive T cells): ~50 fold

galactosyl(α1-2)galactosyl ceramide [GGC]
time required to achieve maximal stimulation (DC): 4 to 6 h | maximal stimulation relative to that achieved in 2 minutes with apoE (DC; 4-6 hours): 48% (+/−11%) | binding of GGC to apoE (apoE; 10 minute incubation at room temperature): all detectable lipid antigen remained bound to apoE | GGC bound to apoE (apoE; in the presence of a 500-fold excess of albumin): greater than 95% | response in apoE-deficient mice versus wild type controls (αGC-reactive NKT cells [1]): drastically reduced | response in LDL-R knockouts versus wild type controls (αGC-reactive NKT cells [2]): greatly diminished response

Glucose monomycolate
CD1b restricted T cell activation when complexed with apoE [3]: more efficient

VLDL-derived apoE: apoE derived from VLDL
increase of antigenic potency of GGC (αGC reactive T cells): ~50 fold

mycolic acid
CD1b restricted T cell activation when complexed with apoE [3]: more efficient
